# Where a name gives a salt, the structure may show the parent alone.
# Target: T1, kinase domain of human CHK-1 (KH289) (Homo sapiens, UniProt O14757)
# T1 construct: kinase domain of human CHK-1 (KH289), amino acid residues 1-289; made in house; host or cells: baculovirus (Bac-to-Bac); Hi-S insect cells for protein production, Sf9/Sf21 for virus amplification
# T1 sequence (O14757 1-289): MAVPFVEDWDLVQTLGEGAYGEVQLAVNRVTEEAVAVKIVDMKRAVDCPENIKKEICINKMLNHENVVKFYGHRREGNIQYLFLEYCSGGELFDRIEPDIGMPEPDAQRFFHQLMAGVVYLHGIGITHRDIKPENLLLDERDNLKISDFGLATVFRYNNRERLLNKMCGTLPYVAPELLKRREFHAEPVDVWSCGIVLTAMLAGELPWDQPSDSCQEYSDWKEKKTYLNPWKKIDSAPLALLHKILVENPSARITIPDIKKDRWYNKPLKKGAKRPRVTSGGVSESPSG
# Test: CHK-1 coupled spectrophotometric enzyme assay (Syntide-2, PK/LDH, NADH oxidation)
# Format: biochemical
# Settings: 10 nM KH289, 0.15 mM ATP, 0.125 mM Syntide-2, pH 7.5
# Text: As previously detailed in European Patent Application No. 1 096 014 A2 (filed Oct. 31, 2000), the C-terminally His-tagged kinase domain of human CHK-1 (KH289), amino acid residues 1-289, can be expressed using the baculovirus/insect cell system. […] The Bac-to-Bac system (Life Technologies) can be used to generate recombinant baculovirus for the expression of KH289 as per instructions. Recombinant viruses can be confirmed by PCR for the presence of CHK-1 cDNA insertion. […] Sf9 insect cells (Invitrogen, Carlsbad, Calif., USA) can be used for initial amplification of recombinant virus stock. High titer stocks of recombinant viruses can be generated by 2 to 3 rounds of amplification using Sf21 insect cells. Hi-S insect cells (Invitrogen, Carlsbad, Calif., USA) can be used for protein production. Both Sf9 and Hi-S cell lines can be adapted to grow in insect medium containing 1% Fetal Bovine Serum (Life Technologies, Grand Island, N.Y., USA). The viral stock was stored at […] and used for large-scale protein production within 2 months to avoid viral instability. For protein production, infected Hi-S cells can be harvested by centrifugation and stored at −80° C. From these cells, 6X-His tagged KH289 (identified by SDS-PAGE) can be obtained after purification and can be flash-frozen in liquid N2 and stored at −80° C.
# As previously detailed in European Patent Application No. 1 096 014 A2 (filed Oct. 31, 2000), the enzymatic activity of a kinase can be measured by its ability to catalyze the transfer of a phosphate residue from a nucleoside triphosphate to an amino acid side chain in a selected protein target. The conversion of ATP to ADP generally accompanies the catalytic reaction. Herein, a synthetic substrate peptide, Syntide-2, having amino acid sequence […] can be utilized. The production of ADP from ATP that accompanies phosphoryl transfer to the substrate can be coupled to oxidation of NADH using phosphoenolpyruvate (PEP) through the actions of pyruvate kinase (PK) and lactic dehydrogenase (LDH). The oxidation of NADH can be monitored by following the decrease of absorbance at 340 nm (e340=6.22 cm-1 mM-1) using a HP8452 spectrophotometer. Typical reaction solutions contained: 4 mM PEP, 0.15 mM NADH, 28 units of LDH/mL, 16 units of PK/mL, 3 mM DTT, 0.125 mM Syntide-2, 0.15 mM ATP and 25 mM MgCl2 in 50 mM TRIS pH 7.5; 400 mM NaCl. Assays can be initiated with 10 nM of kinase domain of CHK-1, KH289. Ki values can be determined by measuring initial enzyme activity in the presence of varying concentrations of inhibitors. The data can be analyzed using Enzyme Kinetic and Kaleidagraph software.
row,Compound,Ki [nM]
1,"Cn1cc(-c2[nH]c3cc(NC(=O)[C@H](N)C4Cc5ccccc5C4)cc4c3c2C=NNC4=O)cn1 [Example 255, (2R)-2-Amino-2-indan-2-yl-N-[2-(1-methyl-1H-pyrazol-4-yl)-6-oxo-5,6-dihydro-1H-[1,2]diazepino[4,5,6-cd]indol-8-yl]-acetamide (hydrochloric salt)]",0.14
2,"Cn1cc(-c2[nH]c3cc(NC(=O)[C@H](N)CCc4ccccc4)cc4c3c2C=NNC4=O)cn1 [Example 256, (2R)-2-Amino-N-[2-(1-methyl-1H-pyrazol-4-yl)-6-oxo-5,6-dihydro-1H-[1,2]diazepino[4,5,6-cd]indol-8-yl]-4-phenyl-butylamide (hydrochloric salt)]",0.78
3,"N[C@@H](C(=O)Nc1cc2c3c(c[nH]c3c1)C=NNC2=O)C1Cc2ccccc2C1 [Example 257, (2R)-2-Amino-2-indan-2-yl-N-(6-oxo-5,6-dihydro-1H-[1,2]diazepino[4,5,6-cd]indol-8-yl)-acetamide (hydrochloric salt)]",0.27
4,"N[C@H](CCc1ccccc1)C(=O)Nc1cc2c3c(c(Br)[nH]c3c1)C=NNC2=O [Example 259, (2R)-2-Amino-N-(2-bromo-6-oxo-5,6-dihydro-1H-[1,2]diazepino[4,5,6-cd]indol-8-yl)-4-phenyl-butylamide (hydrochloric salt)]",0.99
5,"Cc1ccc(-c2[nH]c3cc(NC(=O)[C@H](N)C4Cc5ccccc5C4)cc4c3c2C=NNC4=O)cn1 [Example 260, (2R)-2-Amino-2-indan-2-yl-N-[2-(6-methyl-pyridin-3-yl)-6-oxo-5,6-dihydro-1H-[1,2]diazepino[4,5,6-cd]indol-8-yl]-acetamide (hydrochloric salt)]",0.42
6,"N[C@H](CCc1ccccc1)C(=O)Nc1cc2c3c(c(Cl)[nH]c3c1)C=NNC2=O [Example 261, (2R)-2-Amino-N-(2-chloro-6-oxo-5,6-dihydro-1H-[1,2]diazepino[4,5,6-cd]indol-8-yl)-4-phenyl-butylamide (hydrochloric salt)]",2
7,"Cn1cc(-c2[nH]c3cc(NC(=O)[C@]4(N)C[C@H]4c4ccccc4)cc4c3c2C=NNC4=O)cn1 [Example 262, (1S,2S)-1-Amino-2-phenyl-cyclopropanecarboxylic acid [2-(1-methyl-1H-Pyrazol-4-yl)-6-oxo-5,6-dihydro-1H-[1,2]diazepino[4,5,6-cd]indol-8-yl]-amide (hydrochloric salt)]",0.3
8,"Cn1cc(-c2[nH]c3cc(NC(=O)[C@H](N)COc4ccc(F)cc4)cc4c3c2C=NNC4=O)cn1 [Example 263, (2R)-2-Amino-3-(4-fluoro-phenoxy)-N-[2-(1-methyl-1H-pyrazol-4-yl)-6-oxo-5,6-dihydro-1H-[1,2]diazepino[4,5,6-cd]indol-8-yl]-propionamide (hydrochloric salt)]",0.43
9,"Cn1cc(-c2[nH]c3cc(NC(=O)[C@H](N)COc4ccccc4)cc4c3c2C=NNC4=O)cn1 [Example 264, (2R)-2-Amino-N-[2-(1-methyl-1H-pyrazol-4-yl)-6-oxo-5,6-dihydro-1H-[1,2]diazepino[4,5,6-cd]indol-8-yl]-3-phenoxy-propionamide (hydrochloric salt)]",0.48
10,"Cn1cnc(-c2[nH]c3cc(NC(=O)[C@H](N)CCc4ccccc4)cc4c3c2C=NNC4=O)c1 [Example 266, (2R)-2-Amino-N-[2-(1-methyl-1H-imidazol-4-yl)-6-oxo-5,6-dihydro-1H-[1,2]diazepino[4,5,6-cd]indol-8-yl]-4-phenyl-butylamide (hydrochloric salt)]",0.29
11,"Cn1cnc(-c2[nH]c3cc(NC(=O)[C@H](N)C4CCCCC4)cc4c3c2C=NNC4=O)c1 [Example 271, (2R)-2-Amino-2-cyclohexyl-N-[2-(1-methyl-1H-imidazol-4-yl)-6-oxo-5,6-dihydro-1H-[1,2]diazepino[4,5,6-cd]indol-8-yl]-acetamide (hydrochloric salt)]",1.2
12,"(2R)-2-Amino-2-indan-2-yl-N-[2-(1-methyl-1H-imidazol-4-yl)-6-oxo-5,6-dihydro-1H-[1,2]diazepino[4,5,6-cd]indol-8-yl]-acetamide (hydrochloric salt) [Example 272]",0.2

# Next, values leading:
row,Ki [nM],Compound
1,0.73,"N[C@@H](C(=O)Nc1cc2c3c(c(Cl)[nH]c3c1)C=NNC2=O)C1Cc2ccccc2C1 [Example 265, (2R)-2-Amino-N-(2-chloro-6-oxo-5,6-dihydro-1H-[1,2]diazepino[4,5,6-cd]indol-8-yl)-2-indan-2-yl-acetamide (hydrochloric salt)]"
2,0.78,"Cc1ccc(-c2[nH]c3cc(NC(=O)[C@H](N)CCc4ccccc4)cc4c3c2C=NNC4=O)cn1 [Example 267, (2R)-2-Amino-N-[2-(6-methyl-pyridin-3-yl)-6-oxo-5,6-dihydro-1H-[1,2]diazepino[4,5,6-cd]indol-8-yl]-4-phenyl-butylamide (hydrochloric salt)]"
3,0.01,"Cc1cc(-c2[nH]c3cc(NC(=O)[C@H](N)CCc4ccccc4)cc4c3c2C=NNC4=O)on1 [Example 268, (2R)-2-Amino-N-[2-(3-methyl-isoxazol-5-yl)-6-oxo-5,6-dihydro-1H-[1,2]diazepino[4,5,6-cd]indol-8-yl]-4-phenyl-butylamide (hydrochloric salt)]"
4,0.15,"Cc1cc(-c2[nH]c3cc(NC(=O)[C@H](N)C4Cc5ccccc5C4)cc4c3c2C=NNC4=O)on1 [Example 269, (2R)-2-Amino-2-indan-2-yl-N-[2-(3-methyl-isoxazol-5-yl)-6-oxo-5,6-dihydro-1H-[1,2]diazepino[4,5,6-cd]indol-8-yl]-acetamide]"
5,0.79,"Cn1cc(-c2[nH]c3cc(NC(=O)CNCc4ccccc4)cc4c3c2C=NNC4=O)cn1 [Example 270, 2-Benzylamino-N-[2-(1-methyl-1H-pyrazol-4-yl)-6-oxo-5,6-dihydro-1H-[1,2]diazepino[4,5,6-cd]indol-8-yl]-acetamide (hydrochloric salt)]"
6,0.46,"Cn1cc(-c2[nH]c3cc(NC(=O)[C@H](N)c4ccc(F)cc4)cc4c3c2C=NNC4=O)cn1 [Example 273, (2R)-2-Amino-2-(4-fluoro-phenyl)-N-[2-(1-methyl-1H-pyrazol-4-yl)-6-oxo-5,6-dihydro-1H-[1,2]diazepino[4,5,6-cd]indol-8-yl]-acetamide (hydrochloric salt)]"
7,2,"CN(CC(=O)Nc1cc2c3c(c(-c4cnn(C)c4)[nH]c3c1)C=NNC2=O)Cc1ccccc1 [Example 274, 2-(Benzyl-methyl-amino)-N-[2-(1-methyl-1H-pyrazol-4-yl)-6-oxo-5,6-dihydro-1H-[1,2]diazepino[4,5,6-cd]indol-8-yl]-acetamide]"
8,7,"O=C1NN=Cc2c[nH]c3cc(OCC4CC4c4ccccc4)cc1c23 (centres unmarked) [Example 275, 8-[(2-phenylcyclopropyl)methoxy]-1,5-dihydro-6H-[1,2]diazepino[4,5,6-cd]indol-6-one]"
9,4.5,"N[C@H](CCc1ccccc1)C(=O)Nc1cc2c3c(c[nH]c3c1)C=NNC2=O [Example 276, (2R)-2-Amino-N-(6-oxo-5,6-dihydro-1H-[1,2]diazepino[4,5,6-cd]indol-8-yl)-4-Phenyl-butylamide (hydrochloric salt)]"
10,0.55,"N[C@H](CCc1ccccc1)C(=O)Nc1cc2c3c(c(-c4ccccn4)[nH]c3c1)C=NNC2=O [Example 277, (2R)-2-amino-N-(6-oxo-2-pyridin-2-yl-5,6-dihydro-1H-[1,2]diazepino[4,5,6-cd]indol-8-yl)-4-phenylbutanamide]"
11,0.47,"N[C@@H](C(=O)Nc1cc2c3c(c(-c4ccccn4)[nH]c3c1)C=NNC2=O)C1Cc2ccccc2C1 [Example 278, (2R)-2-amino-2-(2,3-dihydro-1H-inden-2-yl)-N-(6-oxo-2-pyridin-2-yl-5,6-dihydro-1H-[1,2]diazepino[4,5,6-cd]indol-8-yl)acetamide (hydrochloric salt)]"

# Reference: patent US7462713B2, “Tricyclic compounds protein kinase inhibitors for enhancing the efficacy of anti-neoplastic agents and radiation therapy” (Agouron Pharmaceuticals, Inc., priority 2003, dated 2008)
